Tested on: adhesion formation
Assay: Adhesion formation after CO2 laser injury under CO2 or CO2/O2 pneumoperitoneum, scored at second-look laparoscopy after one week
Assay type: in vivo, New Zealand white rabbits
Design: key to Mean total adhesion score: sum of extent (0-4), type (0-3), tenacity (0-3), inflammation (0-3)
Protocol: All animals received two standard CO2 laser injuries. A non opposing lesion was inflicted in the retro-uterine space, i.e. on the posterior utero-vaginal wall, consisting of a 2 cm^2; vaporization of the superficial layers with CO2 laser. In addition, an apposing lesion was performed in the oviduct and pelvic side wall, consisting of a 2 cm^2 vaporization, on both sides. The time required to induce the lesions varied from 3 to 7 minutes.
Animals were assigned randomly on a daily base, to one of the following seven experimental groups. First and second groups were considered control groups. In group 1, using conventional CO2 pneumoperitoneum, the total duration of the procedure was restricted to 10 minutes.
Adhesions were evaluated by laparoscopy after one week. All second look laparoscopies were videotaped, and subsequently scored blindly by two investigators, taking into account extent (0 to 4 points), type (0 to 3 points), tenacity (0 to 3 points) and inflammatory reaction (0 to 3 points) at the injury and at de-novo siteds.
Sixty five New Zealand white rabbits weighing between 2150 and 3000 grams were operated with a standard 3 puncture laparoscopy. Standard surgical injuries were inflicted with CO2 laser (Sharplan 1060: Sharplan, Tel Aviv, Israel) with a spot diameter of 1 mm and a power setting of 10 watts in the continuous superpulse mode. […] The output of both insufflators was mixed in a mixing chamber, humidified and warmed. The insufflation pressure was 10 cm of water and the intra-abdominal flow rate 20 l/min. It is obvious that all means in contact with O2 are adapted therefor.

Structure (SMILES) | P of difference in total adhesion score versus control group with 100% CO2 (Group 2, 60′ CO2) (10′ CO2 (group 1)) | Mean total adhesion score (group 1: pure CO2 pneumoperitoneum, procedure restricted to 10 minutes) | Mean total adhesion score (group 2: pure CO2 pneumoperitoneum maintained 70 minutes) | Increase of adhesion scores, 60 min exposure in comparison with 10 min exposure (pure CO2, 60 min vs 10 min) [fold] | P of difference in total adhesion score versus control group with 100% CO2 (Group 2, 60′ CO2) (60′ 2.5% O2 (group 4)) | P of difference in total adhesion score versus control group with 100% CO2 (Group 2, 60′ CO2) (60′ 5% O2 (group 5)) | P of difference in total adhesion score versus control group with 100% CO2 (Group 2, 60′ CO2) (60′ 10% O2 (group 6)) | P of difference in total adhesion score versus control group with 100% CO2 (Group 2, 60′ CO2) (60′ 20% O2 (group 7)) | P of decrease in total adhesion score with the addition of O2 (de novo adhesions around the opposite tube) | Adhesiogenic effect of CO2 (from a final concentration of 5% oxygen onwards, together with CO2) | Mean total adhesion score (group 3: CO2 with 1% O2, pneumoperitoneum 70 minutes) | Mean total adhesion score (group 5: CO2 with 5% O2, pneumoperitoneum 70 minutes) | Mean total adhesion score (group 6: CO2 with 10% O2, pneumoperitoneum 70 minutes) | Mean total adhesion score (group 7: CO2 with 20% O2, pneumoperitoneum 70 minutes) | Amount of adhesions (increasing concentrations of oxygen in CO2 pneumoperitoneum) | P of decrease in total adhesion score with the addition of O2 (non opposing lesion in the pouch of Douglas) | P of decrease in total adhesion score with the addition of O2 (opposing lesion in tube/side wall)
O=C=O [CO2, carbon dioxide, reference compound] | P = 0.0002 | 4.5±3.7 | 17.5±6.7 | 4 |  |  |  |  |  |  |  |  |  |  |  |  | 
O=O [O2, oxygen] |  |  |  |  | P = 0.05 | P = 0.0005 | P = 0.007 | P = 0.005 | 0.0001 | completely abolished | 15.8±5.2 | 5.3±3.8 | 6.6±4.4 | 6.3±2.5 | decreased progressively | 0.0002 | 0.0014

Source: patent publication US7073512B2, “Adhesion prevention and an endoscopic insufflation system therefor” (Saturnus AG, priority 1997, dated 2006)
